Source: patent US8993585B2, “Cyclic amine substituted pyrimidinediamines as PKC inhibitors” (Rigel Pharmaceuticals, Inc., priority 2007, dated 2015)

Key:
[1] = test system: Human primary T cells; test: IL-2 ELISA, Human Primary T Cell, Anti-CD3+CD28+ (Example 3); format: cell-based; settings: Homo sapiens, T-cell, 24 h, anti-CD3+CD28 stimulation
Outline: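 IL-2 was read by ELISA after stimulation on wells pre-coated with 1 ug/ml αCD3 and 5 μg/ml αCD28. Before this, 100,000 human primary T cells per well spent 1 h at 37 °C with test compound in Yssel's medium. The counter-screen replaced antibody stimulation with PMA (0.5 ng/ml final) and ionomycin (0.1 uM final).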

[2] = molecular target: T1, PKC theta (Homo sapiens, UniProt Q04759); test: PKC assay, fluorescence polarization (Example 2), PKC theta; format: biochemical; settings: 5 μM ATP
T1 construct: purchased Upstate Biotechnologies, Temecula, CA 14-444
T1 sequence (Q04759 whole entry): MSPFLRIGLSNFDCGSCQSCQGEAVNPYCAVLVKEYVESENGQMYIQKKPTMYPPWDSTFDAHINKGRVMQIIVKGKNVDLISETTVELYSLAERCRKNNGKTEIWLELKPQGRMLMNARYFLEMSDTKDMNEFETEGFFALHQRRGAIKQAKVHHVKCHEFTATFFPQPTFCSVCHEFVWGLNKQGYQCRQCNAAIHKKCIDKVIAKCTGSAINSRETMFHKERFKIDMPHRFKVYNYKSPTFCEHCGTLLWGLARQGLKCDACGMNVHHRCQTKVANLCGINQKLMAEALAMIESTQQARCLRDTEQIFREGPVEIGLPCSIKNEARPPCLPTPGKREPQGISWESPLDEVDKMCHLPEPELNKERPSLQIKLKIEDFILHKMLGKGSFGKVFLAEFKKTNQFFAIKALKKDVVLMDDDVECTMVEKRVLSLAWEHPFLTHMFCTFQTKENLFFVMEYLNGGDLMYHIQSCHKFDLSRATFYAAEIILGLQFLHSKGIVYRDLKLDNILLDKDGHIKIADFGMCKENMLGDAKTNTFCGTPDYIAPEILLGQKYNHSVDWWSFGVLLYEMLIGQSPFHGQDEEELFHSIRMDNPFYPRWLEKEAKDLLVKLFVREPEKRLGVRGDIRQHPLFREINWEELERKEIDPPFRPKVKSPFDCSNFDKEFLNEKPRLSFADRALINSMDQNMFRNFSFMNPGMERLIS
Procedure: (§1) The inhibition of PKC activity was measured by monitoring the production of phosphorylated peptide by fluorescence polarization at different concentrations of the inhibitor. Reactions were carried out in 96-well plate format with a total volume of 20 μL containing 20 mM HEPES, pH 7.4, 5 mM MgCl2, 0.2 mM CaCl2, 1 mM DTT, 0.02% Brij-35, 0.1 mg/mL phosphatidylserine, 0.02 mg/mL dioleoyl-sn-glycerol and 5 μM each of ATP and the peptide substrate. Compounds were first diluted serially in DMSO and then transferred to a solution containing the above concentrations of HEPES, MgCl2, CaCl2, DTT, and Brij-35 to yield 5× compound solutions in 2% DMSO, which was then added to the reaction solution. Reactions were initiated by the addition of PKC at a typical concentration as described in Table VI, and then allowed to incubate at room temperature for 20 min. At the end of this time, a combination of quench (EDTA) and detection (peptide tracer and antibody) reagents was added using the protocol of Invitrogen P2748.

[3] = molecular target: T2, PKC epsilon (Homo sapiens, UniProt Q02156); test: PKC assay, fluorescence polarization (Example 2), PKC epsilon; format: biochemical; settings: 5 μM ATP
T2 construct: purchased Upstate Biotechnologies, Temecula, CA 14-518
T2 sequence (Q02156 1-737): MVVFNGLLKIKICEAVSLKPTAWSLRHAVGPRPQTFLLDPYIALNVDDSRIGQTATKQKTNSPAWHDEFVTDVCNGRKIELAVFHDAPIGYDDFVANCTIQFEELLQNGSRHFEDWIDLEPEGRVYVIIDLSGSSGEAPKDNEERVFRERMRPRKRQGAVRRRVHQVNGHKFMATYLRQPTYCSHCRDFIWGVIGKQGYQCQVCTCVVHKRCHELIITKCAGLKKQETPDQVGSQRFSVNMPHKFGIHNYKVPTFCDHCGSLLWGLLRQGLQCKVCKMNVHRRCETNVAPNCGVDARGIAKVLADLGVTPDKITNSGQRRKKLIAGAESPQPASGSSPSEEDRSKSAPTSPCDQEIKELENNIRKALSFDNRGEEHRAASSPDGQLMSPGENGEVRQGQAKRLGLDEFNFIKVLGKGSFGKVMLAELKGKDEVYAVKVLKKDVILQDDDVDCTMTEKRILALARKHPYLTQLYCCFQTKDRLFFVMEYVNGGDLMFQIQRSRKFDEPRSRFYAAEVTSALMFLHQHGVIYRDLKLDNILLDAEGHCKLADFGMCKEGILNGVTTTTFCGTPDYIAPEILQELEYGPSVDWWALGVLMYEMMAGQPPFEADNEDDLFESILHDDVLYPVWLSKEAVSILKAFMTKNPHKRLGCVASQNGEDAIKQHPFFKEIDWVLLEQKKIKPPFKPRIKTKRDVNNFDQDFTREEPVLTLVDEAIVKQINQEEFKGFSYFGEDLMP
Procedure: as §1

Row | Structure (SMILES) | IC50 [1] | IC50 [2] | IC50 [3]
1 | CN1C(C)(C)CC(Nc2nc(Nc3ccc(N4CCN(S(C)(=O)=O)CC4)c(Cl)c3)ncc2C(F)(F)F)CC1(C)C [Compound I-92] | 208 nM | 4.56 nM | 271 nM
2 | COc1ccc(Nc2ncc(C#N)c(NC3CC(C)(C)N(C)C(C)(C)C3)n2)cc1Cl [Compound I-93] | 344 nM | 2.59 nM | 208 nM
3 | CN1C(C)(C)CC(Nc2nc(Nc3ccc(-c4ccncc4)c(C(F)(F)F)c3)ncc2F)CC1(C)C [Compound I-96] | 177 nM | 4.56 nM | 81.7 nM
4 | CN1C(C)(C)CC(Nc2nc(Nc3cccc(C#N)c3)ncc2C#N)CC1(C)C [Compound I-97] | 289 nM | 1.58 nM | 175 nM
5 | CN1CCN(c2ccc(Nc3ncc(C#N)c(NC4CC(C)(C)N(C)C(C)(C)C4)n3)cc2Cl)CC1 [Compound I-101] | 94.6 nM | 5.51 nM | 131 nM
6 | CN1C(C)(C)CC(Nc2nc(Nc3ccc(N4CCN(S(C)(=O)=O)CC4)c(Cl)c3)ncc2C#N)CC1(C)C [Compound I-102] | 217 nM | 12.6 nM | 218 nM
7 | CN1C(C)(C)CC(Nc2nc(Nc3cc(Cl)cc(Cl)c3)ncc2F)CC1(C)C [Compound I-103] | 129 nM | 50.4 nM | 413 nM
8 | CN1C(C)(C)CC(Nc2nc(Nc3cccc(Br)c3)ncc2F)CC1(C)C [Compound I-104] | 79.8 nM | 15.8 nM | 62.8 nM
9 | CN1C(C)(C)CC(Nc2nc(Nc3cccc(-c4ccoc4)c3)ncc2F)CC1(C)C [Compound I-105] | 221 nM | 26 nM | 154 nM
10 | CN1C(C)(C)CC(Nc2nc(Nc3ccc(-c4cccnc4)c(C(F)(F)F)c3)ncc2F)CC1(C)C [Compound I-112] | 73.3 nM | 8.91 nM | 25.6 nM
11 | CN1C(C)(C)CC(Nc2nc(Nc3ccc(-c4cccnc4)c(F)c3)ncc2F)CC1(C)C [Compound I-118] | 237 nM | 18.2 nM | 10.3 nM
12 | CN1C(C)(C)CC(Nc2nc(Nc3cccc(-c4nn[nH]n4)c3)ncc2F)CC1(C)C [Compound I-470] |  | 698 nM | 941 nM
13 | CC1(C)CC(Nc2nc(Nc3cccc(-c4nn[nH]n4)c3)ncc2F)CC(C)(C)N1 [Compound I-471] |  |  | 982 nM
14 | CC1(C)CC(Nc2nc(Nc3ccc4c(c3)oc(=O)n4CC3CC3)ncc2C#N)CC(C)(C)N1 [II-97] | 500 nM | 2.5 nM | 
15 | CCN1C(=O)C(C)(C)Oc2cc(Nc3ncc(OC)c(NC4CC(C)(C)N(C)C(C)(C)C4)n3)ccc21 [II-130] | 720 nM | 10.1 nM | 
16 | CN1CCC(Nc2nc(Nc3cccc(C#N)c3)ncc2F)CC1 [III-2, N2-(3-Cyano)phenyl-5-fluoro-N4-(1-methylpiperidin-4-yl)-2,4-pyrimidinediamine] | 1060 nM | 130 nM | 
17 | CN1CCC(Nc2nc(Nc3ccc(N4CCN(C)CC4)c(C(F)(F)F)c3)ncc2F)CC1 [III-3, 5-Fluoro-N2-[4-(4-methylpiperazino)-3-trifluoromethyl]phenyl-N4-(1-methylpiperidin-4-yl)-2,4-pyrimidinediamine] | 619 nM | 18 nM | 
18 | CN1CCC(Nc2nc(Nc3ccc(N4CCN(C)CC4)c(Cl)c3)ncc2F)CC1 [III-4, N2-[3-Chloro-4-(4-methylpiperazino)]phenyl-5-fluoro-N4-(1-methylpiperidin-4-yl)-2,4-pyrimidinediamine] | 1680 nM | 32.4 nM | 
19 | N#Cc1cccc(Nc2ncc(F)c(NC3CCN(CCO)CC3)n2)c1 [III-6, N2-(3-Cyano)phenyl-5-fluoro-N4-[1-(2-hydroxyethyl)piperidin-4-yl]-2,4-pyrimidinediamine] | 1560 nM | 255 nM | 
20 | CN1CCN(c2ccc(Nc3ncc(F)c(NC4CCN(CCO)CC4)n3)cc2C(F)(F)F)CC1 [III-7, 5-Fluoro-N4-[1-(2-hydroxyethyl)piperidin-4-yl]-N2-[4-(4-methylpiperazino)-3-trifluoromethyl]phenyl-2,4-pyrimidinediamine] | 1140 nM | 254 nM | 
